From patent US20230142739A1, “PROTEIN-PROTEIN INTERACTION STABILIZERS” (The Regents of the University of California, priority 2020, published 2023)
Where two headings read alike, the source gives them in different places. Non-standard residues stand in square brackets, D forms with d. Residues, ends and D or L forms follow the SMILES beside them. *: point of attachment. 5FAM = O=C1OC2(c3ccc(O)cc3Oc3cc(O)ccc32)c2ccc(C(=O)*)cc21; pT = C[C@@H](OP(=O)(O)O)[C@H](N)C(=O)O; pS = N[C@@H](COP(=O)(O)O)C(=O)O

Columns and labels:
Type in all cases: binding
14-3-3σ(C42) = molecular target: T1, 14-3-3σ(C42) (Homo sapiens, UniProt P31947, C38N/N42C); experiment: Fluorescence anisotropy titration of 14-3-3σ(C42) to fluorescein-labeled partner peptides
T1 construct: with a truncated C-terminus after T231; His6 (N, cleaved yes); made in house; host or cells: E. coli NiCo21 (DE3), pPROEX HTb
T1 sequence (P31947 1-231 C38N/N42C): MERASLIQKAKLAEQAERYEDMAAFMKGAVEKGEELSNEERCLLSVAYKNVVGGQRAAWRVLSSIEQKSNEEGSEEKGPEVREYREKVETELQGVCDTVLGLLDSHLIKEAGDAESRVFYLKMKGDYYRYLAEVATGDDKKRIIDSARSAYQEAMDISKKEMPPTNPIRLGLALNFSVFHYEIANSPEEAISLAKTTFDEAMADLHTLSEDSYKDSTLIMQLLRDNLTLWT
Protocol: The 14-3-3/ER stabilizer FC (Fusicoccin) inhibits estradiol dependent signaling. FC (a natural product) inhibits dimerization of E2/ER and tamoxifen/ER. FC also blocks DNA binding and transcription (482) (PNAS May 28, 2013 110 (22) 8894-8899). Disulfide trapping for stabilizers of 14-3-3σ/ERα-pp (15-mer phosphopeptide representing the 14-3-3σ binding motif of ERα), was measured (J. Am. Chem. Soc. 2019, 141, 8, 3524-3531, FIG. 1b). Different cysteine residues yield different 14-3-3/client stabilizing chemical moieties. At each tethering residue, bound chemical moieties can be competitive with peptide, noncompetitive, or cooperative (J. Am. Chem. Soc. 2019, 141, 8, 3524-3531, FIG. 1c). […] 14-3-3σ (C42) expected mass: 26509 Da, βME capped mass: 26585 Da, protein-disulfide conjugate mass: 26795 Da. LC/MS dose response curves showing percentage of protein conjugate formation for titrations of disulfides to 14-3-3σ (C42) apo and bound to ERα-pp, were measured. […] LC/MS dose response curves showing percentage of protein conjugate formation for titrations of disulfides to 14-3-3σ (C42) apo and bound to ERα-pp, were measured. […] Dose-response curve of Fragment 1, which induces ERα binding, were measured (J. Am. Chem. Soc. 2019, 141, 8, 3524-3531, FIG. 2a-2b, supporting information). Small molecules stabilize 14-3-3σ/Erα-pp binding. […] Schematic of experimental design and Plot of anisotropy (mean+SD) for titrations of Frag001, Frag002, FC-A (natural product fusicoccane-A), or DMSO control to fluorescein-Erα-pp and 1 μM 14-3-3σ (C42) (J. Am. Chem. Soc. 2019, 141, 8, 3524-3531, FIG. 3a-3b). Dose-response curves were obtained by MS by analyzing % tethering for titrations of Fragment 2 to 14-3-3σ apo (− peptide;) or bound to different interaction partner-derived peptide motifs; ERα-pp ( ), TASK3-pp ( ), ExoS ( ) or TAZ-pp ( ), starting from 1 mM (J. Am. Chem. Soc. 2019, 141, 8, 3524-3531, FIG. 4b). LC/MS screening data of hits for 14-3-3σ (C42)+/−ERα-pp was collected. The deconvoluted LC/MS spectra of disulfide fragments bound to 14-3-3σ (C42) alone or in complex with ERα-pp were determined with 14-3-3σ (C42) expected mass: 26509 Da, βME capped mass: 26585 Da, protein-disulfide conjugate mass: between 26752-26919 Da. Fragments bound preferentially in the presence of ERα-pp: 959996 (1), 916971, and 917137 were termed ‘cooperative’. […] Fluorescence anisotropy (r) of fluorescein-ERα-pp versus concentration of 6 or FC-A binding to 14-3-3σ(C42) or 14-3-3σ(C45) was tested. […]
Fluorescence Anisotropy. […] Fluorescence anisotropy measurements were performed directly and after overnight incubation at room-temperature, using a Tecan Infinite F500 plate reader (filter set λex: 485±20 nm, λem: 535±25 nm). […]

Pin1_72/14-3-3 complex = molecular target: T2, Pin1_72/14-3-3 complex (Homo sapiens, UniProt P61981); experiment: Fluorescence anisotropy compound titration, Pin1_72/14-3-3 (CC50)
T2 construct: the full length 14-3-3γ was dialysis against 25 mM HEPES pH 7.5; made in house; host or cells: E. coli BL21(DE3), pPROEX HTb
T2 sequence (P61981 1-247): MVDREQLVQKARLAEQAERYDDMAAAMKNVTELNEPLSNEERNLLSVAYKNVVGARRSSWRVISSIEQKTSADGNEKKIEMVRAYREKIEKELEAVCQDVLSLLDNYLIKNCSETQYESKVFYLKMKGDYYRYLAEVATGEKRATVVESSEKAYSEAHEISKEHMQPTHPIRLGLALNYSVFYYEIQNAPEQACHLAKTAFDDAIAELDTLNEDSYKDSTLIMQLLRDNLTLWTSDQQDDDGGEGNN
Protocol: Site-Directed Shift base fragment Screening. […] As measure of activity the inflection point of the curve was determined, representing the half-maximum complex formation (CC50).
(§1) Fluorescence Anisotropy (FA) Assays.

Pin1_72/14-3-3γ = molecular target: T3, Pin1_72/14-3-3γ (Homo sapiens, UniProt P61981+Q13526); experiment: Fluorescence anisotropy protein titration, Pin1_72/14-3-3γ at constant compound; details: based on internal DMSO control and 100 μM fragment
T3 construct: the full length 14-3-3γ was dialysis against 25 mM HEPES pH 7.5; made in house; host or cells: E. coli BL21(DE3), pPROEX HTb
From the text: Inspired by the binding poses of 3 and 9 we combined their structural features to improve stabilization. […] In case of complex stabilization, a left shift of apparent KD values is expected, here described as stabilization factors (SF).
as §1

14-3-3/Pin1_72 complex = molecular target: T4, 14-3-3/Pin1_72 complex (Homo sapiens, UniProt P61981); experiment: Cooperativity analysis, 14-3-3 titrations at varied constant fragment concentration
T4 construct: the full length 14-3-3γ was dialysis against 25 mM HEPES pH 7.5; made in house; host or cells: E. coli BL21(DE3), pPROEX HTb
From the text: Cooperativity in ternary complex formation. In contrast to PPI inhibition, where affinity to one of the protein pockets is the driving force for drug development, design of molecular glues is driven by cooperative ternary complex formation. Both CC50 and SF values are concentration dependent values and might differ based on assay design. […] Cooperative complex formation is often accompanied by structural changes of the interface of a complex which translates to increased stability of the ternary com-plex. In order to assess cooperativity of the ternary complex, fragments 13, 23, 27 and 28 were selected for cooper-activity analysis. The α-factor of the fragments were determined using 14-3-3 titrations in the presence of varied, but constant concentration of fragment in a dose-dependent manner. […] Further, the interval of change in stabilization further describes the systems cooperative behaviour.
However, at higher concentration regimes significant assay interference was observed, probably due to compound aggregation. Fragments 23, 27 and 28 all reached saturation or approached saturation enabling accurate determination of α-factor. […] KD remains constant also at higher concentrations of FC-A, indicating non-specific effects.

[1] = molecular target: T5, 14-3-3σ(C42)/ERα-pp complex (Homo sapiens, UniProt P31947, C38N/N42C); experiment: Disulfide tethering primary screen, intact protein LC/MS, protein-peptide complex
T5 construct: with a truncated C-terminus after T231; His6 (N, cleaved yes); made in house; host or cells: E. coli NiCo21 (DE3), pPROEX HTb
Protocol: Apo-14-3-3σ or the 14-3-3σ/ERα-pp complex was screened against a 1600-member disulfide library under mildly reducing conditions (100 μM betamercaptoethanol; βME). Conjugate formation for each individual reaction was analyzed by intact protein MS. Three peaks observed in mass spectra corresponded to apo, βME-capped, and fragment-conjugated 14-3-3σ. The ‘percent tethering’, defined as the intensity of the fragment-specific conjugate protein peak divided by the sum of the intensities for all protein peaks, was calculated for each individual experiment using an automated pipeline. (492)
Disulfide Tethering screening and data processing. The primary screening was performed by incubating the target with individual compounds in a 384-well plate format. A custom library of 1600 disulfide-containing fragments of the UCSF Small Molecule Discovery Center (SMDC), synthesized as previously reported, was available as 50 mM stock solutions in DMSO. (496, 497) For screening, 14-3-3σ wild-type and Cys-mutants were diluted to 100 nM in buffer (10 mM Tris, 100 μM betamercaptoethanol (βME), pH 8.0) and plated in 384-well plates (15 μL/well). 30 nL of each fragment was pinned from the library master plates into the protein samples using a Biomek FX (Beckman) to give a final concentration of 100 μM. The duplicate experiments additionally contained 200 nM ERα-pp. The reaction mixtures were incubated for 3 hours at RT before being subjected to LC/MS (I-class Acquity UPLC/Xevo G2-XS Quadrupole Time of Flight mass spectrometer, Waters). Data collection and automated processing followed a custom workflow, as previously described. (492) All compounds described in the text were from the same lot as the original screening material.

CC(C)C[C@H](NC(=O)CNC(=O)[C@H](CCC(N)=O)NC(=O)CNC(=O)[C@H](Cc1c[nH]cn1)NC(=O)CNC(=O)[C@H](CO)NC(=O)c1ccc2c(c1)C(=O)OC21c2ccc(O)cc2Oc2cc(O)ccc21)C(=O)N[C@@H](CC(C)C)C(=O)N[C@@H](CC(=O)O)C(=O)N[C@@H](C)C(=O)N[C@@H](CC(C)C)C(=O)N[C@@H](CC(=O)O)C(=O)N[C@@H](CC(C)C)C(=O)N[C@@H](C)C(=O)N[C@@H](CO)C(N)=O [ExoS]
EC50 (14-3-3σ(C42)): 11100 nM

O=Cc1ccc(-n2ccnc2)c(Cl)c1 [L2]
activity in FA assay (Pin1_72/14-3-3 complex): significant complex formation
SF (fold stabilization) (Pin1_72/14-3-3γ): 0.8

O=Cc1ccc(-n2ccnc2-c2cccnc2)cc1Br [compound 26, 2-bromo-4-(2-(pyridin-3-yl)-1H-imidazol-1-yl)benzaldehyde]
activity in FA assay (Pin1_72/14-3-3 complex): limited effect
SF (fold stabilization) (Pin1_72/14-3-3γ): 2.27

CC[C@H](C)[C@H](NC(=O)[C@H](Cc1ccc(O)cc1)NC(=O)[C@H](Cc1ccc(O)cc1)NC(=O)[C@H](CCCCN)NC(C)=O)C(=O)N[C@H](C(=O)NCC(=O)N[C@@H](CCC(=O)O)C(=O)N[C@@H](C)C(=O)N[C@@H](CCC(=O)O)C(=O)NCC(=O)N[C@@H](Cc1ccccc1)C(=O)N1CCC[C@H]1C(=O)N[C@@H](C)C(=O)N[C@H](C(=O)N[C@H](C(=O)O)C(C)C)[C@@H](C)OP(=O)(O)O)[C@@H](C)O [ERα-pp] (Ac-KYYITGEAEGFPA[pT]V-OH)
EC50 (14-3-3σ(C42)): 300 nM

O=Cc1ccc(-n2ccnc2-c2ccccc2Br)cc1Br [compound 23, 2-bromo-4-(2-(2-bromophenyl)-1H-imidazol-1-yl)benzaldehyde]
SF (fold stabilization) (Pin1_72/14-3-3γ): 18.9
cooperativity factor (α-factor) (14-3-3/Pin1_72 complex): approximately 60

CN(C)CCSSCCn1cc(CN2C(=O)C(=O)c3ccccc32)nn1 [compound 957838]
hit category (binding in presence vs absence of ERα-pp) [1]: neutral

CC(C)C[C@H](NC(=O)[C@H](CCC(N)=O)NC(=O)[C@H](CC(C)C)NC(=O)[C@H](CO)NC(=O)[C@H](C)NC(=O)[C@@H]1CCCN1C(=O)[C@H](CO)NC(=O)[C@H](COP(=O)(O)O)NC(=O)[C@H](Cc1c[nH]cn1)NC(=O)[C@H](CO)NC(=O)[C@H](CCCNC(=N)N)NC(=O)c1ccc2c(c1)C(=O)OC21c2ccc(O)cc2Oc2cc(O)ccc21)C(=O)NCC(=O)N[C@H](C(N)=O)[C@@H](C)O [TAZ-pp, RSHpS^89SPASLQ] (5FAM-RSH[pS]SPASLQLGT-NH2)
EC50 (14-3-3σ(C42); fluorescein-labeled peptide): 2200 nM

CN(C)CCSSCCNC(=O)C1CCN(C(=O)c2ccccc2NC(=O)c2ccccc2)CC1 [compound 917805]
hit category (binding in presence vs absence of ERα-pp) [1]: neutral

CC(C)[C@H](NC(=O)[C@H](COP(=O)(O)O)NC(=O)[C@H](CCCCN)NC(=O)[C@H](CCCNC(=N)N)NC(=O)[C@H](CCCNC(=N)N)NC(=O)c1ccc2c(c1)C(=O)OC21c2ccc(O)cc2Oc2cc(O)ccc21)C(=O)O [TASK3-pp, KRRKpS^373V-OH] (5FAM-RRK[pS]V-OH)
EC50 (14-3-3σ(C42); fluorescein-labeled peptide): 200 nM

CN(C)CCSSCCNC(=O)c1ccccc1Sc1ccccc1C#N [compound 917137]
hit category (binding in presence vs absence of ERα-pp) [1]: cooperative

NCCSSCCCC(=O)NCC(c1ccccc1)c1ccccc1 [compound 916971]
hit category (binding in presence vs absence of ERα-pp) [1]: cooperative

O=Cc1ccc(-n2ccnc2-c2ccc(O)cc2)cc1Br [compound 25, 2-bromo-4-(2-(4-hydroxyphenyl)-1H-imidazol-1-yl)benzaldehyde]
activity in FA assay (Pin1_72/14-3-3 complex): limited effect
